In article PMC5719457, “Pseudomonas aeruginosa zinc uptake in chelating environment is primarily mediated by the metallophore pseudopaline” (Scientific Reports, 2017):

Tests used:
PaCntM = biological target: T1, PaCntM (Pseudomonas aeruginosa, UniProt A0A0H2ZH12); test: fluorescence resonance energy transfer titration (Trp to NAD(P)H); format: binding
T1 construct: gene cntM; full length, N-terminal His6 tag (TEV-cleavable, pET-TEV), E. coli BL21

PaCntL = biological target: T2, PaCntL (Pseudomonas aeruginosa, UniProt A0A0H2ZHV3); test: TLC with […]-SAM; HILIC/ESI-MS; format: biochemical; conditions: product yNA
T2 construct: gene cntL; full length, C-terminal His6 tag (pET22b+), E. coli BL21
T2 sequence (A0A0H2ZHV3 whole entry): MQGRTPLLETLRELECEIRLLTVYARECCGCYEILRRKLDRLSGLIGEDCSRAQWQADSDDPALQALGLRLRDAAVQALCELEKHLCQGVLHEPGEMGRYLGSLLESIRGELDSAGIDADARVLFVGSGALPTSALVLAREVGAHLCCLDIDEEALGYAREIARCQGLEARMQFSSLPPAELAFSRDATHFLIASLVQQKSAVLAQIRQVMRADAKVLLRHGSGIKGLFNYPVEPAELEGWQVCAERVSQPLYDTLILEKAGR

T1 sequence (A0A0H2ZH12 whole entry): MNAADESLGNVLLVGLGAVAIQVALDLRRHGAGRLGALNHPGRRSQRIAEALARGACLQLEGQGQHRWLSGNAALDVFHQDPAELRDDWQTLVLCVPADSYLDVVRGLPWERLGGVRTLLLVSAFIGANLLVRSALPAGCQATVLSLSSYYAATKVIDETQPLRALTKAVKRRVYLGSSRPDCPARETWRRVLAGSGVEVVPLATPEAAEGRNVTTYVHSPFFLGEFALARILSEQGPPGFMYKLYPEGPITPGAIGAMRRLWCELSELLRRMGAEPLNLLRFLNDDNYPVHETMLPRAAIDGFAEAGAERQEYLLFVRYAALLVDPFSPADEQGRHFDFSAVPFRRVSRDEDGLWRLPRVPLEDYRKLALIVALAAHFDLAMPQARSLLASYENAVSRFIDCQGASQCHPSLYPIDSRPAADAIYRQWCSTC

`NC(=O)C1=CN([C@@H]2O[C@H](COP(=O)(O)OP(=O)(O)OC[C@H]3O[C@@H](n4cnc5c(N)ncnc54)[C@H](O)[C@@H]3O)[C@@H](O)[C@H]2O)C=CC1` [NADH] showed a Kd (PaCntM) of 30 µM.

`C[S+](CC[C@H](N)C(=O)O)C[C@H]1O[C@@H](n2cnc3c(N)ncnc32)[C@H](O)[C@@H]1O` (stereo partly drawn) [SAM] was tested, and the “TLC with [14C]-SAM; HILIC/ESI-MS” value (PaCntL; co-substrate L-histidine, labelled compound (carboxyl-14C) in TLC) was “incubation of PaCntL with SAM and L-histidine led to the formation of the yNA”.

For `N[C@@H](Cc1cnc[nH]1)C(=O)O` [L-histidine], the “TLC with [14C]-SAM; HILIC/ESI-MS” value (PaCntL; co-substrate SAM) was “Only the incubation with L-histidine led to a novel band”.
